Measured values published in US9868707B2, “Small molecule agonists of neurotensin receptor 1” (SANFORD-BURNHAM MEDICAL RESEARCH INSTITUTE, priority 2012, dated 2018).
pEC50: −log10 of the molar value. Where two headings read alike, the source gives them in different places.

What was measured:
NTSR1 (NTR1) = molecular target: T1, NTSR1 (NTR1) (Homo sapiens, UniProt P30989); experiment: NTR1 β-Arrestin dose response (DiscoveRx PathHunter, CHO-K1); assay type: cell-based
T1 construct: host or cells: CHO-K1
T1 sequence (P30989 whole entry): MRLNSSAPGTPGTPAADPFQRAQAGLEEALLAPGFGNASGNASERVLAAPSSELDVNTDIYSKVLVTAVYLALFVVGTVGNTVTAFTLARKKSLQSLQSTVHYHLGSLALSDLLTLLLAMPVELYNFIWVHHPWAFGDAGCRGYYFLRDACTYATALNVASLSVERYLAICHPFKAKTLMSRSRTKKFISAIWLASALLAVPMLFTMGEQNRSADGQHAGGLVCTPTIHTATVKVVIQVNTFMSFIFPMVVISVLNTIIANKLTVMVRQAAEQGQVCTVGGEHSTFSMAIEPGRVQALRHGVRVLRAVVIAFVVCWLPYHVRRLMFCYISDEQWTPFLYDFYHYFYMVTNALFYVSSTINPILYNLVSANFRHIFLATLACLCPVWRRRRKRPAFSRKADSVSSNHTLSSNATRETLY
Protocol: The NTR1 β-Arrestin assays were performed using a PathHunter™ eXpress kit (93-0446E2) which contained the NTSR1 (NTR1) CHO cell line, OCC2 media (30-409), as well as the PathHunter Detection Reagents (93-0446E2). The kit was obtained from DiscoveRx (Fremont, Calif.). The assay employed the same neurotensin 1 peptide as a control as was used in the NTR1 primary assay. The assay was run in 1536-well, white, solid-bottom tissue culture plates (3727) from Corning.
On day one of the assay, 5 uL of a cell suspension containing 120,000 NTSR1 (NTR1) CHO-K1 cells per mL in OCC2 media is added to each well of a 1536-well assay plate using a Multidrop Combi. The assay plates are then incubated for 48 hours at 37° C., under 5% CO2. Following the two day incubation, a volume of 20, 10, and 5 nL of 10 and 1.2 mM test compounds in DMSO were transferred from source wells to test compound wells in assay plates with a LabCyte Echo to achieve final assay concentrations ranging from 33 to 1.03 uM for each test sample. Test compound wells and control wells were backfilled with DMSO to achieve a final volume of DMSO of 20 nL or a final assay concentration of 0.33%. […] Plates are again centrifuged as previously described then incubated at room temperature for 1 hour before being read on the PerkinElmer using a luminescent protocol.

[1] = Plasma stability, mouse plasma; assay type: in vitro ADME
Protocol: Plasma stability was determined using previously published methods (Kerns, E. H., and Di, L. 2008. Drug-like Properties: Concepts, Structure Design and Methods. Oxford UK: Elsevier). Compound (1.0 μM) was incubated at 37° C. in human or mouse plasma (from blood of healthy donors collected on EDTA) diluted to 50% (v/v) with pH 7.4 isotonic phosphate buffer. At time 0 min and 180 min, aliquots were collected, added to acetonitrile to quench the reaction and precipitate plasma proteins. These samples were centrifuged and the supernatant analyzed by the LC/MS/MS method described above for the presence of the parental compound.

[2] = Aqueous solubility, direct UV kinetic solubility method; assay type: physicochemical
Protocol: The aqueous solubility of the compound was determined using a direct UV kinetic solubility method (Avdeef, A. 2001. Physicochemical profiling (solubility, permeability and charge state). Curr Top Med Chem 1:277-351) in a 96-well format at pH 5.0, 6.2 and 7.4. Compounds (250 μM) were incubated for 18.0h at room temperature to achieve equilibrium, and then filtered to remove any precipitate. The concentration of the compound in solution was measured by UV absorbance (250-498 nm) and compared to the spectra of precipitation-free reference solutions. Spectroscopically pure 1-Propanol (Sigma, St Louis, Mo.) was used as a cosolvent to suppress precipitation in the reference solutions. The solubility of each compound was determined using μSOL Evolution Plus software v3.2 (pION Inc) and is expressed as the concentration (μg/mL) of a solute in a saturated solution

MOR = molecular target: T2, MOR (Homo sapiens, UniProt P35372); experiment: Panlabs/Ricerca lead profiling panel, MOR; assay type: binding; details: @ 10 μM
T2 construct: Panlabs/Ricerca (contract panel)
T2 sequence (P35372 whole entry): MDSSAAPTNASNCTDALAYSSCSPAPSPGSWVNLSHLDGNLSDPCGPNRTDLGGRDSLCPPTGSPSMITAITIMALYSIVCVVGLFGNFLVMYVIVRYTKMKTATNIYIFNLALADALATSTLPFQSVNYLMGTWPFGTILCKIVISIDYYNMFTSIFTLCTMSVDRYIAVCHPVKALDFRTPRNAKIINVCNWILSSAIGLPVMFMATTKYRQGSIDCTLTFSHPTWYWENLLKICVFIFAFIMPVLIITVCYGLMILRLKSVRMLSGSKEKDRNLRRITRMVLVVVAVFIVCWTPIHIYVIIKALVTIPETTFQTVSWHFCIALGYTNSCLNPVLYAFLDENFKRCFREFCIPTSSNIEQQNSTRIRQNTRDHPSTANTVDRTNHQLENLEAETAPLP
From the text: However, these activities in in vitro binding assays may not translate into functional modulation of these receptors.

[3] = Parallel Artificial Membrane Permeability Assay (PAMPA); assay type: in vitro ADME
Protocol: The PAMPA in a 96-well sandwich plate format was used to determine the capacity of compounds to cross a model of cell membrane by passive diffusion (Avdeef, A., Nielsen, P. E., and Tsinman, O. 2004. PAMPA—a drug absorption in vitro model 11. Matching the in vivo unstirred water layer thickness by individual-well stirring in microtitre plates. Eur J Pharm Sci 22:365-374). The effective permeability of the compound was measured at an initial concentration of 50 μM. The permeability measurements were performed using a cosolvent buffer system (20% ACN/aqueous buffer) solution (pION Inc, Woburn Mass.) prepared according to the manufacturer's instructions. The compound was dissolved in buffer solution and ACN (20%, cosolvent) to the desired concentration (50 μM). The PAMPA sandwich plate consisting of a donor bottom plate and an acceptor filter plate was used. The donor wells contained the compounds in 190 μl system solution, and magnetic stir bars. The filter on the bottom of each acceptor well was coated with GIT-0 phospholipid solution (pION Inc) and filled with 200 μl of Acceptor Sink Buffer, pH 7.4 (pION Inc) containing surfactant. The permeation time was 30 min and moderate stirring (equivalent to 40 μm Aqueous Boundary Layer thickness) was applied using the Gut-Box™ (pION, Inc). After the permeation time, the sandwich was disassembled and the amount of compound present in both the donor and acceptor wells was measured by UV absorbance (250-498 nm) and compared to spectra obtained reference standards. Mass balance was used to determine the amount of material embedded in the membrane filter. The effective permeability, Pe, was calculated using the software PAMPA Evolution Plus, version 3.2 (pION Inc).

[4] = Brain levels in mouse after ip dosing; assay type: in vivo
[5] = PK in mouse after iv and ip dose; assay type: in vivo

In the case of `COc1cc2nc(C3CC3)nc(N3CCN(c4ccccc4OC)CC3)c2cc1OC` [Compound 315, 2-cyclopropyl-6,7-dimethoxy-4-(4-(2-methoxyphenyl)piperazin-1-yl)quinazoline], the pEC50 (NTSR1 (NTR1)) was 5.47, the “Plasma Stability (% Remaining at 3 hrs)” value [1] was 99.55% and the solubility at 18 h ([2]; 1x PBS, pH 7.4, aqueous buffer, kinetic from dmso stock, read-out: Aqueous Solubility in 1x PBS, pH 7.4) was 0.45 µg/mL. The “Aqueous Solubility in 1x PBS, pH 7.4” value ([2]; 1x PBS, pH 7.4, molar units) was 1.1 μM, the “Aqueous Solubility in pION's buffer” value ([2]; pH 6.2) was 9.0 μg/mL and the solubility at 18 h ([2]; pH 7.4, molar units, read-out: Aqueous Solubility in pION's buffer) was 1.2 µM. The solubility at 18 h ([2]; pION's buffer, aqueous buffer, kinetic from dmso stock, pH 5.0, molar units, read-out: Aqueous Solubility in pION's buffer) was greater than 297 µM, the solubility at 18 h ([2]; pION's buffer, aqueous buffer, kinetic from dmso stock, pH 5.0, read-out: Aqueous Solubility in pION's buffer) was greater than 125 µg/mL and the solubility at 18 h ([2]; pION's buffer, pH 7.4, aqueous buffer, kinetic from dmso stock, read-out: Aqueous Solubility in pION's buffer) was 0.52 µg/mL. The “activity at MOR” value (MOR) was 86%, the “PAMPA Permeability, Pe” value ([3]; Donor pH 5.0, Acceptor pH 7.4) was 1163 ×10⁻⁶ cm/s and the “PAMPA Permeability, Pe” value ([3]; Donor pH 6.2, Acceptor pH 7.4) was 2145 ×10⁻⁶ cm/s. The “PAMPA Permeability, Pe” value ([3]; Donor pH 7.4, Acceptor pH 7.4) was 2093 ×10⁻⁶ cm/s, the “permeability in the PAMPA assay” value ([3]; with increasing pH of the donor compartment) was “high permeability” and the brain/plasma ([4]; 1 hr after 10 mg/kg ip dose) was 1.3. For the same molecule, the brain/plasma ([4]; 1 hr after 30 mg/kg ip dose) was 1.6, the Vdss ([5]; 2 mg/kg iv dose) was 6.22 L/kg and the t1/2 ([5]; 2 mg/kg iv dose) was 1.93 h. It also gave an AUC ([5]; 10 mg/kg ip dose) of 1223 ng·h/mL, a Cmax ([5]; 10 mg/kg ip dose) of 763 ng/mL and a t1/2 ([5]; 10 mg/kg ip dose) of 2.58 h. For the same molecule, the “PK properties in mouse” value ([5]; in vivo) was “modest PK properties”.
